In patent US8765123B1, “Compositions and methods for the treatment and prevention of infections caused by Staphylococcus aureus bacteria” (Rutgers, The State University of New Jersey, priority 2007, dated 2014):
“Also recorded” adds a separate entry of the source.

Columns and labels:
Assay type in all cases: cell-based, Staphylococcus aureus
[1] = test system: S. aureus Strain SH1000 biofilms; assay: Detachment of pre-formed S. aureus biofilms in microtiter plate wells, crystal violet staining
Description: (§1) S. aureus Strain SH1000 (Horsburgh et al., 2002. J. Bacteriol. 184:5457-5467) was used in all of the following examples. The bacteria were passaged weekly on blood agar and stored at 4° C. Biofilms were cultured in Tryptic Soy broth (Becton-Dickinson, Sparks, Md.) containing 6 g of yeast extract and 8 g of glucose per liter (TSB medium). All cultures were incubated at 37° C.
A biofilm formation assay was carried out as follows. A loopful of cells from an agar plate was transferred to a polypropylene microcentrifuge tube containing 200 μl of TSB medium. The cells were crushed with a disposable pellet pestle, vortexed for 30 sec, diluted to 1 ml in fresh TSB medium, and then passed through a 5-μm pore-size syringe filter to remove large clumps of cells as previously described (Kaplan & Fine, 2002. Appl. Environ. Microbiol. 68:4943-4950). Filtered cells were diluted to 10^3-10^5 CFU/ml in TSB medium. Aliquots of cells (200 μl each) were transferred to the wells of a 96-well tissue-culture-treated polystyrene microtiter plate (Falcon no. 324662, Becton-Dickinson) and the plate was incubated for 24 h. The biofilms were rinsed once with water and then treated with 200 μl of deoxyribonuclease I (bovine deoxyribonuclease I, purchased from Sigma Chemical Company) at 100 μg/ml in 150 mM NaCl, 1 mM CaCl2. Control biofilms were treated with 200 μl of 150 mM NaCl, 1 mM CaCl2 alone. After 10 min at 37° C., biofilms were rinsed with water and then dried. Biofilms were stained for 1 min with 200 μl of Gram's crystal violet stain (catalog no. 23255960, Fisher Scientific, Fair Lawn, N.J.) and then rinsed with water and dried.
The concentration of deoxyribonuclease I was 100 μg/ml and the treatment time was 10 min. In this case, the amount of biofilm biomass remaining in the well was quantitated by measuring the A595 of the crystal violet stained biomass as described above, and the percent of biofilm cell detachment was calculated using the formula: 1−(A595[buffer+deoxyribonuclease I]/A595[buffer alone])×100.

[2] = test system: S. aureus SH1000 cells; assay: Autoaggregation and biofilm formation in PET tubes with supplemented TSB medium; details: medium supplemented with 100 μg/ml, 16 h
Description: as §1
These experiments were carried out as described above, except that biofilms were grown in 16-mm×100-mm PET tubes (2 ml culture vol) in a rotary shaker for 16 h.

[3] = test system: SH1000 biofilms; assay: Biofilm formation in 96-well microtiter plates in supplemented TSB medium, crystal violet A595
[4] = test system: S. aureus biofilm cells; assay: Killing of biofilm cells in microplate wells, CFU/well enumeration; details: 24-h biofilm; deoxyribonuclease I alone, 100 μg/ml for 10 min; FIG. 8
Description: Biofilms were grown for 24 h in 96-well microtiter plates as described above. Biofilms were rinsed once with water and then treated with 200 μl of TSB medium containing 100 μg/ml of deoxyribonuclease I. Control wells were treated with 200 μl of TSB medium alone. […] Control wells received 20 μl of water. […] This reaction was carried out in 100 μg/ml in 150 mM NaCl, 1 mM CaCl2 as described above. After 10 min, cells were mixed and then serial dilutions were plated on agar. For S. aureus biofilms treated with deoxyribonuclease I, cells were mixed and then a 50-μl aliquot of cells was diluted in 50 ml of phosphate buffered saline. The cells were passed through an analytical test filter funnel (no. 145-2020; Nalgene, Rochester, N.Y.), and the filter was rinsed with 250 ml of sterile water, aseptically removed from the filter unit, and placed on a blood agar plate. Colonies were enumerated after 24 h.

For deoxyribonuclease I, the “detachment of biofilm (crystal violet staining material remaining in the well)” value ([1]; 24-h-old biofilm, 100 μg/ml, 10 min treatment, FIG. 1) was “significant detachment of the biofilm; also recorded: nearly complete detachment”, the “concentration dependence of biofilm detachment (Absorbance at 595 nm)” value ([1]; 24-h-old biofilm, 10 min treatment, FIG. 2) was “dependent on the deoxyribonuclease I concentration” and the “detachment of biofilm (A595 of crystal violet)” value ([1]; 24-h-old biofilm, concentrations between 0.1 and 10 μg/ml, 10 min, FIG. 2) was “partial detachment”. For the same substance, the “detachment of biofilm (A595 of crystal violet)” value ([1]; 24-h-old biofilm, concentrations greater than 10 μg/ml, 10 min, FIG. 2) was “near complete detachment”, the “detachment of biofilm (A595 of crystal violet)” value ([1]; 24-h-old biofilm, concentrations less than 0.1 μg/ml, 10 min, FIG. 2) was “little detachment” and the “detachment of biofilms of different age (percent of biofilm cell detachment from A595)” value ([1]; biofilms grown for 5, 8, 12 or 24 h, 100 μg/ml, 10 min, FIG. 3) was “capable of detaching; also recorded: significant detachment of all of the S. aureus biofilms, regardless of their age”. For the same substance, the “biofilm formation in tubes at the air-liquid interface (crystal violet staining)” value ([2]; FIG. 5) was “much less biofilm formation; also recorded: inhibited biofilm formation at the air-liquid interface”, the “autoaggregation (clumping) of cells” value ([2]; rotary shaker, FIG. 4) was “much less clumping; also recorded: formed smaller aggregates” and the “inhibition of biofilm formation (A595 of crystal violet stained biomass), concentration dependence” value ([3]; increasing concentrations in medium, FIG. 7) was “dependent on the deoxyribonuclease I concentration; also recorded: inhibited SH1000 biofilm formation in a dose-dependent manner”. For the same substance, the “biofilm colony morphology in microplate wells” value ([3]; medium supplemented with 100 μg/ml, 24 h, FIG. 6) was “incapable of forming distinct biofilm colonies; also recorded: formed a dense film that uniformly covered the microwell surface, but which readily detached after gentle rinsing” and the “decrease in CFU/well values (killing of biofilm cells)” value [4] was “resistant to killing; also recorded: did not exhibit a significant decrease”.
